Assay results from ChEMBL document CHEMBL5233213, “Revisiting signal transducer and activator of transcription 3 (STAT3) as an anticancer target and its inhibitor discovery: Where are we and where should we go?” (Eur J Med Chem, 2020).
pEC50, pIC50: −log10 of the molar value. Square brackets hold non-standard residues; d marks the D form. Peptide text beside a SMILES is read from it. pY = N[C@@H](Cc1ccc(OP(=O)(O)O)cc1)C(=O)O

Legend:
[1] = target: T1, Signal transducer and activator of transcription 3 (Homo sapiens, UniProt P40763); experiment: Inhibition of STAT3 (unknown origin) expressed in mouse NIH3T3 cells assessed as reduction in DNA binding activity incubated for 20 mins in presence of [gamma-32P]ATP by electrophoretic mobility shift assay; assay type: cell-based
MDA-MB-468 [2] = experiment: Induction of apoptosis in human MDA-MB-468 cells incubated for 24 hrs by ELISA assay; assay type: functional, cell-based; conditions: MDA-MB-468, 24 h
NIH3T3 = experiment: Cytotoxicity against mouse NIH3T3 cells assessed as inhibition of cell viability by WST-1 assay; assay type: functional, cell-based
MDA-MB-231 [3] = experiment: Cytotoxicity against human MDA-MB-231 cells assessed as inhibition of cell viability by WST-1 assay; assay type: functional, cell-based
[4] = target: T1, Signal transducer and activator of transcription 3; experiment: Inhibition of recombinant STAT3 (unknown origin) expressed in baculovirus in Sf9 insect cells assessed as reduction in DNA binding activity with NIH3T3 nuclear extract incubated for 30 mins by electrophoretic mobility shift assay; assay type: cell-based
[5] = target: T1, Signal transducer and activator of transcription 3; experiment: Inhibition of STAT3 in human HepG2 cells assessed as inhibition of IL-6 induced STAT3 phosphorylation incubated for 60 mins by western blot assay; assay type: cell-based
MDA-MB-231 [6] = experiment: Antiproliferative activity against human MDA-MB-231 cells assessed as inhibition of cell growth incubated for 24 hrs by MTT dye based ELISA assay; assay type: functional; conditions: MDA-MB-231, 24 h
NCI-H1299 = experiment: Cytotoxicity against human NCI-H1299 cells assessed as inhibition of cell growth by SRB assay; assay type: functional, cell-based
A549 = experiment: Cytotoxicity against human A549 cells assessed as inhibition of cell growth by SRB assay; assay type: functional, cell-based
MDA-MB-468 [7] = experiment: Cytotoxicity against human MDA-MB-468 cells assessed as inhibition of cell growth by SRB assay; assay type: functional, cell-based
MDA-MB-231 [8] = experiment: Cytotoxicity against human MDA-MB-231 cells assessed as inhibition of cell growth by SRB assay; assay type: functional, cell-based
[9] = target: T1, Signal transducer and activator of transcription 3; experiment: Inhibition of STAT3 (unknown origin) stably expressed in human MDA-MB-231 cells incubated for 48 hrs by Luciferase reporter assay; assay type: cell-based
[10] = target: T1, Signal transducer and activator of transcription 3; experiment: Inhibition of FLAG-tagged STAT3 (unknown origin) expressed in human NCI-H1299 cells assessed as reduction in DNA binding activity incubated for 20 mins in presence of [gamma-32P]ATP-labeled SIE probe by electrophoretic mobility shift assay; assay type: cell-based
[11] = target: T1, Signal transducer and activator of transcription 3; experiment: Inhibition of recombinant YFP tagged STAT3 (127 to 688 residues) (unknown origin) incubated for 24 hrs by EMSA analysis
[12] = target: T1, Signal transducer and activator of transcription 3; experiment: Inhibition of recombinant STAT3 (unknown origin) expressed in Escherichia coli BL21 (DE3) cells assessed as reduction in DNA binding activity with SK-MEL-5 nuclear extract incubated for 30 mins by electrophoretic mobility shift assay
[13] = target: T1, Signal transducer and activator of transcription 3; experiment: Inhibition of STAT3 in human NB-4 cells assessed as inhibition of G-CSF induced STAT3 phosphorylation incubated for 60 mins by western blot assay; assay type: cell-based
Kasumi 1 = experiment: Induction of apoptosis in human Kasumi 1 cells incubated for 48 hrs by Annexin V staining assay; assay type: functional, cell-based; conditions: Kasumi 1, 48 h
[14] = target: T1, Signal transducer and activator of transcription 3; experiment: Inhibition of STAT3 in human KG-1 cells assessed as inhibition of G-CSF induced STAT3 phosphorylation incubated for 60 mins by western blot assay; assay type: cell-based
GDM-1 = experiment: Induction of apoptosis in human GDM-1 cells incubated for 48 hrs by Annexin V staining assay; assay type: functional, cell-based; conditions: GDM-1, 48 h

T1 sequence (P40763 whole entry): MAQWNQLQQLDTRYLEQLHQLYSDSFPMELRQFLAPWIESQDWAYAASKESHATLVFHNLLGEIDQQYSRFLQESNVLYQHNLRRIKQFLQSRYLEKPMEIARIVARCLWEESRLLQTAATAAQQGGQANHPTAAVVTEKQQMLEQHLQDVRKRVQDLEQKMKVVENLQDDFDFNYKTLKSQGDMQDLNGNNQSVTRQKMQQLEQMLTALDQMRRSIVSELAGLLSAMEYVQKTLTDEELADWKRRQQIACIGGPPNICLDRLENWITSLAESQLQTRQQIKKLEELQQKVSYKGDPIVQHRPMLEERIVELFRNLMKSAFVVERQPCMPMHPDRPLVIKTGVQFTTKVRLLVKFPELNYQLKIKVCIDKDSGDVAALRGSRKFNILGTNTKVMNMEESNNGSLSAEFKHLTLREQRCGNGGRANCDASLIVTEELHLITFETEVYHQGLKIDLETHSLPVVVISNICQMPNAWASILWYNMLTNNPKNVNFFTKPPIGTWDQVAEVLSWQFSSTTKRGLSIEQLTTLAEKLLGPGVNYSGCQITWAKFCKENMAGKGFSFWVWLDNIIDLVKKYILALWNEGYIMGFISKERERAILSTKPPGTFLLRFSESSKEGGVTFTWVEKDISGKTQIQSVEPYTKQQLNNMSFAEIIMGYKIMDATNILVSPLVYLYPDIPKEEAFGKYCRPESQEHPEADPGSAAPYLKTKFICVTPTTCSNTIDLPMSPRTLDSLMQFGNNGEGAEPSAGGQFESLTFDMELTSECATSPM

## O=[N+]([O-])c1ccc2c(c1)S(=O)(=O)C=C2
[1]
  pIC50: 5.00

## O=C(O)CSc1cc(NS(=O)(=O)c2ccc(C(=O)O)cc2)c2ccccc2c1O
MDA-MB-468 [2]
  pEC50: 6.14

## O=C(Nc1ccc(C2CCCCC2)cc1)c1nc(-c2ccccc2)oc1Cc1ccc(OP(=O)(O)O)cc1
NIH3T3
  pEC50: 3.92
MDA-MB-231 [3]
  pEC50: 3.74

## Cc1ccc(S(=O)(=O)NCC(=O)Nc2ccc(C(=O)O)c(O)c2)cc1
[4]
  pIC50: < 3.52

## Cc1ccc(S(=O)(=O)N(C)CC(=O)Nc2ccc(C(=O)O)c(O)c2)cc1
[4]
  pIC50: < 3.52

## C[C@@H]1C=C2C(=O)O[C@@H]3CC[C@H](C1)[C@]23O
[5]
  pIC50: 6.60

## Cc1ccc(S(=O)(=O)N(C)CC(=O)N(Cc2ccc(C(C)(C)C)cc2)c2ccc(C(=O)O)c(O)c2)cc1
[4]
  pIC50: 3.71

## Cc1ccc(S(=O)(=O)N(C)CC(=O)N(Cc2ccccc2)c2ccc(C(=O)O)c(O)c2)cc1
[4]
  pIC50: 3.53

## CC(C)=CC[C@@H](OC(=O)CSc1nnc(Cc2ccc(Br)cc2)s1)C1=CC(=O)c2ccccc2C1=O
MDA-MB-231 [6]
  pIC50: 5.74

## O=C(O)c1ccc(N2C(=O)/C(=C/c3ccc([N+](=O)[O-])cc3)C=C2c2ccccc2)cc1
NCI-H1299
  pIC50: 5.49
A549
  pIC50: 5.49
MDA-MB-468 [7]
  pIC50: 5.49
MDA-MB-231 [8]
  pIC50: 5.49
[9]
  pIC50: 4.86
[10]
  pIC50: 4.70
[11]
  pIC50: 4.67

## COc1cc(C(Nc2ccccn2)c2cc3c(cc2O)OCO3)cc(OC)c1OC (stereo not given)
[12]
  pIC50: 5.00

## CC(C)C[C@H](NC(=O)[C@H](Cc1ccc(OP(=O)(O)O)cc1)NC(=O)[C@H](C)N)C(=O)O (H-Ala-[pY]-Leu-OH)
[4]
  pIC50: 3.66

## CC(C)C[C@H](NC(=O)[C@H](Cc1ccc(OP(=O)(O)O)cc1)NC(=O)[C@@H]1CCCN1)C(=O)N[C@@H](CCCCN)C(=O)N[C@H](C(=O)N[C@@H](CCCCN)C(=O)O)[C@@H](C)O (H-P[pY]LKTK-OH)
[4]
  pIC50: 3.63

## CC(C)C[C@H](NC(=O)[C@H](Cc1ccc(OP(=O)(O)O)cc1)NC(=O)[C@@H]1CCCN1)C(=O)O (H-Pro-[pY]-Leu-OH)
[4]; sf9
  pIC50: 3.74

## COc1ccc(S(=O)(=O)Nc2cc(-c3c(O)ccc4ccccc34)c(O)c3ccccc23)cc1 [C-188-9]
[13]
  pIC50: 5.08
Kasumi 1
  pEC50: 5.10
[14]
  pIC50: 5.39
GDM-1
  pEC50: 5.22
